SMILES strings stand for the structures.

The values that follow come from patent publication US12521393B2, “Cytotoxicity targeting chimeras for CCR2-expressing cells” (GLAXOSMITHKLINE INTELLECTUAL PROPERTY DEVELOPMENT LIMITED, priority 2021, dated 2026).

For assay [1], the target named is anti-cotinine antibody (SEQ ID NO: 11/12, rabbit variable region with human IgG1 Fc DE mutation). Briefly: SPR binding of anti-cotinine antibody to ARM compounds, Biacore T200, 37° C. (Example 202). The note with it: SPR Biacore T200, 37° C., pH 7.4, antibody SEQ ID NO: 11/12 captured on protein A; Kd in molar. The method, then:
Anti-cotinine antibodies having a heavy chain sequence of SEQ ID NO: 11 and a light chain sequence of SEQ ID NO: 12 (rabbit variable region with human IgG1 Fc domain containing a DE mutation (S239D/1332E)) were captured on one or more flow cells of a protein A sensor chip (Cytiva) using a Biacore T200 while reserving flow cell 1 as a reference. Following capture, a 3000 second wait step was included to reduce drift during compound analysis. ARM compounds of Formula (I) were then injected at 100 μL/min with 200 and 2000 second association and dissociation times. The entire experiment was run at 37° C. with running buffer containing 10 mM HEPES pH 7.4, 150 mM NaCl, 0.005% P20 and 1% DMSO. ARM compounds of Formula (I) were titrated with a top concentration of 200 nM using a 3-fold 5-point dilution series and a corresponding 5-injection buffer cycle was run for blank subtraction. Data were double referenced by subtracting the response of the reference flow cell from that of the antibody-containing flow cell and subsequently subtracting the referenced blank sensorgrams. Following compound analysis, the surface was regenerated using a 30 second injection of pH 1.5 glycine at a flow rate of 30 μL/min after which antibody was re-captured. The experiment was run using Biacore T200 control software and evaluated using Biacore T200 Evaluation software. Curves were fit with a 1:1 kinetic binding model to obtain kon (1/Ms), koff(1/s), Kd (M) determined as koff/kon, and residence time determined as 1/koff (s).
Anti-cotinine antibody was tested for binding to ARMs compounds of Formula (I) of the invention in the above assay in or more experimental runs and the results are shown in Table 5 below. Affinity is reported as a pKd value. The pKd value is the negative log of the Kd value, wherein the Kd value is the dissociation constant measured in molar (M) as noted above. For compounds tested in more than one experimental run, the pKd value is reported as an average

In assay [2] the test system is endogenous target monocytes in human PBMC. Briefly: PBMC ex vivo monocyte depletion flow cytometry assay (Example 200). Format: cell-based. The note with it: with anti-cotinine antibody (SEQ ID NO: 11/12), 18-24 hours, EC50 in molar, read-out: Ex Vivo Depletion Assay pEC50 (converted). The method in brief:
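Monocyte depletion is reported as pEC50, averaged or given individually across runs, and read by flow cytometry staining CD45, CD14 and CD4 with a viability dye. Compounds, diluted four-fold over 11 points from 1 mM DMSO stocks, were combined with 30 μg/mL Fc-enhanced anti-cotinine antibody and human PBMC, then incubated 18-24 h at 37° C.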
For orientation: A flow cytometer gives signals particle by particle.

As for `CC(C)N(C)[C@@H]1CC[C@H](N2CC[C@H](Nc3ncnc4ccc(C(F)(F)F)cc34)C2=O)[C@H](NC(=O)[C@H]2CC[C@@H](NC(=O)CCOCCNC(=O)CCCCNC(=O)[C@H]3CC(=O)N(C)[C@@H]3c3cccnc3)CC2)C1` [Example 198, (2S,3S)-N-(5-((2-(3-(((1S,4s)-4-(((1R,2S,5R)-5-(Isopropyl(methyl)amino)-2-((S)-2-oxo-3-((6-(trifluoromethyl)quinazolin-4-yl)amino)pyrrolidin-1-yl)cyclohexyl)carbamoyl)cyclohexyl)amino)-3-oxopropoxy)ethyl)amino)-5-oxopentyl)-1-methyl-5-oxo-2-(pyridin-3-yl)pyrrolidine-3-carboxamide], the “pKd of Antibody for ARM Compound of Formula (I)” value (shortened to “pKd of Antibody”) in assay [1] is 9.3835. Further, the EC50 in assay [2] was 0.501 nM.
For the compound `CN1C(=O)C[C@H](C(=O)NCC(=O)NCCOCCOCCC(=O)N[C@H]2CC[C@@H](C(=O)N[C@@H]3C[C@H](NC(C)(C)C)CC[C@@H]3N3CC[C@H](Nc4ncnc5ccc(C(F)(F)F)cc45)C3=O)CC2)[C@H]1c1cccnc1` [Example 65, (2S,3S)-N-(2-((2-(2-(3-(((1S,4s)-4-(((1R,2S,5R)-5-(tert-Butylamino)-2-((S)-2-oxo-3-((6-(trifluoromethyl)quinazolin-4-yl)amino)pyrrolidin-1-yl)cyclohexyl)carbamoyl)cyclohexyl)amino)-3-oxopropoxy)ethoxy)ethyl)amino)-2-oxoethyl)-1-methyl-5-oxo-2-(pyridin-3-yl)pyrrolidine-3-carboxamide], in assay [1], the “pKd of Antibody” value was found to be 8.648. The EC50 in assay [2] is 100000 nM.
The corresponding values for `CC(C)N(C)[C@@H]1CC[C@H](N2CC[C@H](Nc3ncnc4ccc(C(F)(F)F)cc34)C2=O)[C@H](NC(=O)[C@H]2C[C@H](NC(=O)CCOC[C@H]3CC[C@H](COCCNC(=O)[C@H]4CC(=O)N(C)[C@@H]4c4cccnc4)CC3)C2)C1` [Example 54, (2S,3S)-N-(2-(((1R,4S)-4-((3-(((1R,3R)-3-(((1R,2S,5R)-5-(Isopropyl(methyl)amino)-2-((S)-2-oxo-3-((6-(trifluoromethyl)quinazolin-4-yl)amino)pyrrolidin-1-yl)cyclohexyl)carbamoyl)cyclobutyl)amino)-3-oxopropoxy)methyl)cyclohexyl)methoxy)ethyl)-1-methyl-5-oxo-2-(pyridin-3-yl)pyrrolidine-3-carboxamide] are 9.5515 and 1 nM.
For `CC(C)N(C)[C@@H]1CC[C@H](N2CC[C@H](Nc3ncnc4ccc(C(F)(F)F)cc34)C2=O)[C@H](NC(=O)C2CCN(C(=O)CCOCCOCCOCCNC(=O)[C@H]3CC(=O)N(C)[C@@H]3c3cccnc3)CC2)C1` [Example 29, N-((1R,2S,5R)-5-(Isopropyl(methyl)amino)-2-((S)-2-oxo-3-((6-(trifluoromethyl)quinazolin-4-yl)amino)pyrrolidin-1-yl)cyclohexyl)-1-(1-((2S,3S)-1-methyl-5-oxo-2-(pyridin-3-yl)pyrrolidin-3-yl)-1-oxo-5,8,11-trioxa-2-azatetradecan-14-oyl)piperidine-4-carboxamide] the same measures were 9.3345 and 2.51 nM.
For `CC(C)N(C)[C@@H]1CC[C@H](N2CC[C@H](Nc3ncnc4ccc(C(F)(F)F)cc34)C2=O)[C@H](NC(=O)COCCNC(=O)CCOCCOCCNC(=O)CCNC(=O)[C@H]2CC(=O)N(C)[C@@H]2c2cccnc2)C1` [Example 50, (2S,3S)-N-(1-(((1R,2S,5R)-5-(Isopropyl(methyl)amino)-2-((S)-2-oxo-3-((6-(trifluromethyl)quinazolin-4-yl)amino)pyrrolidin-1-yl)cyclohexyl)amino)-1,7,17-trioxo-3,10,13-trioxa-6,16-diazanonadecan-19-yl)-1-methyl-5-oxo-2-(pyridin-3-yl)pyrrolidine-3-carboxamide], in assay [1], the “pKd of Antibody” value worked out at 9.1485. Also, the EC50 in assay [2] was 0.126 nM.
`CC(C)N(C)[C@@H]1CC[C@H](N2CC[C@H](Nc3ncnc4ccc(C(F)(F)F)cc34)C2=O)[C@H](NC(=O)COCCNC(=O)CCNC(=O)CCOCCOCCNC(=O)[C@H]2CC(=O)N(C)[C@@H]2c2cccnc2)C1` [Example 181, (2S,3S)-N-(1-(((1R,2S,5R)-5-(Isopropyl(methyl)amino)-2-((S)-2-oxo-3-((6-(trifluoromethyl)quinazolin-4-yl)amino)pyrrolidin-1-yl)cyclohexyl)amino)-1,7,11-trioxo-3,14,17-trioxa-6,10-diazanonadecan-19-yl)-1-methyl-5-oxo-2-(pyridin-3-yl)pyrrolidine-3-carboxamide]: the “pKd of Antibody” value in assay [1] came to 9.1645. Moreover, in assay [2], the EC50 was 0.398 nM.
The corresponding values for `CC(C)N(C)[C@@H]1CC[C@H](N2CC[C@H](Nc3ncnc4ccc(C(F)(F)F)cc34)C2=O)[C@H](NC(=O)[C@H]2C[C@@H](NC(=O)CCOCCOCCNC(=O)CNC(=O)[C@H]3CC(=O)N(C)[C@@H]3c3cccnc3)C2)C1` [Example 66, (2S,3S)-N-(2-((2-(2-(3-(((1S,3s)-3-(((1R,2S,5R)-5-(Isopropyl(methyl)amino)-2-((S)-2-oxo-3-((6-(trifluoromethyl)quinazolin-4-yl)amino)pyrrolidin-1-yl)cyclohexyl)carbamoyl)cyclobutyl)amino)-3-oxopropoxy)ethoxy)ethyl)amino)-2-oxoethyl)-1-methyl-5-oxo-2-(pyridin-3-yl)pyrrolidine-3-carboxamide] are 8.649 and 0.631 nM.
The corresponding values for `CC(C)N(C)[C@@H]1CCC(N2CC[C@H](Nc3ncnc4ccc(C(F)(F)F)cc34)C2=O)[C@H](NC(=O)CCOCCOCCOCCOCCOCCOCCOCCOCCNC(=O)[C@H]2CC(=O)N(C)[C@@H]2c2cccnc2)C1` (stereo partly drawn) [Example 42, (2S,3S)-N-(27-(((1R,2S,5R)-5-(isopropyl(methyl)amino)-2-((S)-2-oxo-3-((6-(trifluoromethyl)quinazolin-4-yl)amino)pyrrolidin-1-yl)cyclohexyl)amino)-27-oxo-3,6,9,12,15,18,21,24-octaoxaheptacosyl)-1-methyl-5-oxo-2-(pyriidn-3-yl)pyrrolidine-3-carboxamide] are 9.23 and 3.16 nM.
Consider `CC(C)N(C)[C@@H]1CC[C@H](N2CC[C@H](Nc3ncnc4ccc(C(F)(F)F)cc34)C2=O)[C@H](NC(=O)[C@H]2CC[C@@H](NC(=O)CCOCCNC(=O)COCCCNC(=O)[C@H]3CC(=O)N(C)[C@@H]3c3cccnc3)CC2)C1` [Example 175, (2S,3S)-N-(3-(2-((2-(3-(((1S,4s)-4-(((1R,2S,5R)-5-(Isopropyl(methyl)amino)-2-((S)-2-oxo-3-((6-(trifluoromethyl)quinazolin-4-yl)amino)pyrrolidin-1-yl)cyclohexyl)carbamoyl)cyclohexyl)amino)-3-oxopropoxy)ethyl)amino)-2-oxoethoxy)propyl)-1-methyl-5-oxo-2-(pyridin-3-yl)pyrrolidine-3-carboxamide], for which the “pKd of Antibody” value in assay [1] stood at 9.244. For the same compound, the EC50 in assay [2] is 0.631 nM.
Turning to `CC(C)N(C)[C@@H]1CC[C@H](N2CC[C@H](Nc3ncnc4ccc(C(F)(F)F)cc34)C2=O)[C@H](NC(=O)[C@H]2C[C@@H](NC(=O)CCO[C@H]3CC[C@H](OCCNC(=O)[C@H]4CC(=O)N(C)[C@@H]4c4cccnc4)CC3)C2)C1` [Example 115, (2S,3S)-N-(2-(((1S,4S)-4-(3-(((1S,3S)-3-(((1R,2S,5R)-5-(Isopropyl(methyl)amino)-2-((S)-2-oxo-3-((6-(trifluoromethyl)quinazolin-4-yl)amino)pyrrolidin-1-yl)cyclohexyl)carbamoyl)cyclobutyl)amino)-3-oxopropoxy)cyclohexyl)oxy)ethyl)-1-methyl-5-oxo-2-(pyridin-3-yl)pyrrolidine-3-carboxamide], the “pKd of Antibody” value in assay [1] was found to be 9.363. Also, the EC50 in assay [2] is 0.158 nM.
For the compound `CC(C)N(C)[C@@H]1CC[C@H](N2CC[C@H](Nc3ncnc4ccc(C(F)(F)F)cc34)C2=O)[C@H](NC(=O)[C@H]2CC[C@H](NC(=O)CCO[C@H]3CC[C@H](OCCNC(=O)[C@H]4CC(=O)N(C)[C@@H]4c4cccnc4)CC3)CC2)C1` [Example 113, (2S,3S)-N-(2-(((1R,4S)-4-(3-(((1R,4R)-4-(((1R,2S,5R)-5-(Isopropyl(methyl)amino)-2-((S)-2-oxo-3-((6-(trifluoromethyl)quinazolin-4-yl)amino)pyrrolidin-1-yl)cyclohexyl)carbamoyl)cyclohexyl)amino)-3-oxopropoxy)cyclohexyl)oxy)ethyl)-1-methyl-5-oxo-2-(pyridin-3-yl)pyrrolidine-3-carboxamide], in assay [1], the “pKd of Antibody” value is 9.767. Further, the EC50 in assay [2] is 3.16 nM.
